Laboratory results published in patent publication US12264159B2, “Functionalized heterocycles as antiviral agents” (Enanta Pharmaceuticals, Inc., priority 2018, dated 2025).

Assays:
[1] = Compound induced cellular toxicity in HepG2 cells, ATPlite 1Step; format: cell-based; conditions: human, three days exposure, 50% reduction of total ATP vs no drug controls
Method: At day 3, post seeding cells are treated with ATPlite 1Step according to the manufacturer's instructions.

HBV in 2.2.15 cells = assay: 2.2.15 cells: viral product in cell lysates quantified via quantitative real time PCR; format: cell-based, hepatitis B virus (HBV); conditions: Hepatitis B virus, 120 h, day 5 post treatment, 50% reduction of viral product vs no drug controls, readout (qPCR, HBsAg or HBeAg) not specified for the column
Outline: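 HBV product was measured at day 5 by lysate qPCR or by supernatant HBsAg/HBeAg ELISA, in 2.2.15 cells seeded at 35,000/well and exposed to 5-fold compound dilution series (0.5% DMSO). EC50 is 50% reduction of viral product relative to untreated controls.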

Row | Compound | CC50 at 3 days [1] [nM] | EC50 (HBV in 2.2.15 cells) [nM]
1 | CC(C)(C)[C@@H]1Cn2nc(-c3ccoc3)cc2-c2cc(=O)c(C(=O)O)cn21 [Example 4, (R)-6-(tert-butyl)-2-(furan-3-yl)-10-oxo-5,6-dihydro-10H-pyrazolo[1,5-a]pyrido[2,2-c]pyrazine-12-carboxylic acid] | > 25000 | 200 to 1000
2 | CCOc1cc(F)ccc1-c1cc2n(n1)C[C@@H](C(C)(C)C)n1cc(C(=O)O)c(=O)cc1-2 [Example 72, (R)-6-(tert-butyl)-2-(2-ethoxy-4-fluorophenyl)-10-oxo-5,6-dihydro-10H-pyrazolo[1,5-a]pyrido[2,2-c]pyrazine-12-carboxylic acid] | > 25000 | < 100
3 | Cc1cccc(F)c1-c1cc2n(n1)C[C@@H](C(C)(C)C)n1cc(C(=O)O)c(=O)cc1-2 [Example 51, (R)-6-(tert-butyl)-2-(2-fluoro-6-methylphenyl)-10-oxo-5,6-dihydro-10H-pyrazolo[1,5-a]pyrido[2,2-c]pyrazine-12-carboxylic acid] | > 25000 | 200 to 1000
4 | Cc1ccccc1-c1cnn2c1-c1cc(=O)c(C(=O)O)cn1[C@H](C(C)(C)C)C2 [Example 127, (R)-6-(tert-butyl)-10-oxo-1-(o-tolyl)-5,6-dihydro-10H-pyrazolo[1,5-a]pyrido[2,1-c]pyrazine-9-carboxylic acid] | > 25000 | < 100
5 | Cc1cc(-c2cc3n(n2)C[C@@H](C(C)(C)C)n2cc(C(=O)O)c(=O)cc2-3)c(F)cc1F [Example 39, (R)-6-(tert-butyl)-2-(2,4-difluoro-5-methylphenyl)-10-oxo-5,6-dihydro-10H-pyrazolo[1,5-a]pyrido[2,2-c]pyrazine-12-carboxylic acid] | > 25000 | < 100
6 | CC(C)[C@@H]1Cn2nc(C3CC3)c(-c3ccco3)c2-c2cc(=O)c(C(=O)O)cn21 [Example 136, (R)-2-cyclopropyl-1-(furan-2-yl)-6-isopropyl-10-oxo-5,6-dihydro-10H-pyrazolo[1,5-a]pyrido[2,1-c]pyrazine-9-carboxylic acid] | > 25000 | < 100
7 | CC(C)(C)[C@@H]1Cn2nc(-c3ccccc3C(F)F)cc2-c2cc(=O)c(C(=O)O)cn21 [Example 85] | > 25000 | 200 to 1000
8 | CC(C)(C)[C@@H]1Cn2ncc(-c3ccoc3)c2-c2cc(=O)c(C(=O)O)cn21 [Example 102, (R)-6-(tert-butyl)-1-(furan-3-yl)-10-oxo-5,6-dihydro-10H-pyrazolo[1,5-a]pyrido[2,1-c]pyrazine-9-carboxylic acid] | > 25000 | < 100
9 | O=C(O)c1cn2c(cc1=O)-c1c(-c3ccccc3)c(-c3ccccc3)nn1CC2 [Example 199, 10-oxo-1,2-diphenyl-5,6-dihydro-10H-pyrazolo[1,5-a]pyrido[2,1-c]pyrazine-9-carboxylic acid] | > 25000 | < 100
10 | CC(C)(C)[C@@H]1Cn2nc(-c3ccccc3O)cc2-c2cc(=O)c(C(=O)O)cn21 [Example 46, (R)-6-(tert-butyl)-2-(2-hydroxyphenyl)-10-oxo-5,6-dihydro-10H-pyrazolo[1,5-a]pyrido[2,2-c]pyrazine-12-carboxylic acid] | > 25000 | < 100
11 | CCOc1ccc(OC)cc1-c1cc2n(n1)C[C@@H](C(C)(C)C)n1cc(C(=O)O)c(=O)cc1-2 [Example 37, (R)-6-(tert-butyl)-2-(2-ethoxy-5-methoxyphenyl)-10-oxo-5,6-dihydro-10H-pyrazolo[1,5-a]pyrido[2,2-c]pyrazine-12-carboxylic acid] | > 25000 | < 100
12 | CC(C)(C)[C@@H]1Cn2ncc(-c3cccs3)c2-c2cc(=O)c(C(=O)O)cn21 [Example 109, (R)-6-(tert-butyl)-10-oxo-1-(thiophen-2-yl)-5,6-dihydro-10H-pyrazolo[1,5-a]pyrido[2,1-c]pyrazine-9-carboxylic acid] | > 25000 | < 100
13 | CC(C)[C@@H]1Cn2nc(C3CC3)c(-c3ccccc3)c2-c2cc(=O)c(C(=O)O)cn21 [Example 130, (R)-2-cyclopropyl-6-isopropyl-10-oxo-1-phenyl-5,6-dihydro-10H-pyrazolo[1,5-a]pyrido[2,1-c]pyrazine-9-carboxylic acid] | > 25000 | < 100
14 | CC(C)(C)[C@@H]1Cn2nc(-c3ccc(F)cc3F)cc2-c2cc(=O)c(C(=O)O)cn21 [Example 8, (R)-6-(tert-butyl)-2-(2,4-difluorophenyl)-10-oxo-5,6-dihydro-10H-pyrazolo[1,5-a]pyrido[2,2-c]pyrazine-12-carboxylic acid] | > 25000 | < 100
15 | COc1cc(-c2cc3n(n2)C[C@@H](C(C)(C)C)n2cc(C(=O)O)c(=O)cc2-3)c(OC)nn1 [Example 16, (R)-6-(tert-butyl)-2-(3,6-dimethoxypyridazin-4-yl)-10-oxo-5,6-dihydro-10H-pyrazolo[1,5-a]pyrido[2,2-c]pyrazine-12-carboxylic acid] | > 25000 | < 100
16 | CC(C)(C)[C@@H]1Cn2nc(C3CC3)c(-c3cccc4scnc34)c2-c2cc(=O)c(C(=O)O)cn21 [Example 164, (R)-1-(benzo[d]thiazol-4-yl)-6-(tert-butyl)-2-cyclopropyl-10-oxo-5,6-dihydro-10H-pyrazolo[1,5-a]pyrido[2,1-c]pyrazine-9-carboxylic acid] | > 25000 | < 100
17 | C[C@@H]1Cn2nc(-c3ccccc3)c(-c3ccccc3)c2-c2cc(=O)c(C(=O)O)cn21 [Example 203, (R)-6-methyl-10-oxo-1,2-diphenyl-5,6-dihydro-10H-pyrazolo[1,5-a]pyrido[2,1-c]pyrazine-9-carboxylic acid] | > 25000 | < 100
18 | CC(C)(C)[C@@H]1Cn2nc(-c3cc(F)ccc3F)cc2-c2cc(=O)c(C(=O)O)cn21 [Example 61, (R)-6-(tert-butyl)-2-(2,5-difluorophenyl)-10-oxo-5,6-dihydro-10H-pyrazolo[1,5-a]pyrido[2,2-c]pyrazine-12-carboxylic acid] | > 25000 | < 100
19 | CC(C)[C@@H]1Cn2nc(-c3ccccc3)c(-c3ccccc3)c2-c2cc(=O)c(C(=O)O)cn21 [Example 179, (R)-6-isopropyl-10-oxo-1,2-diphenyl-5,6-dihydro-10H-pyrazolo[1,5-a]pyrido[2,1-c]pyrazine-9-carboxylic acid] | > 25000 | < 100
20 | CC(C)(C)[C@@H]1Cn2nc(C3CC3)c(-c3cccc4c3OC(F)(F)O4)c2-c2cc(=O)c(C(=O)O)cn21 [Example 150, (R)-6-(tert-butyl)-2-cyclopropyl-1-(2,2-difluorobenzo[d][1,3]dioxol-4-yl)-10-oxo-5,6-dihydro-10H-pyrazolo[1,5-a]pyrido[2,1-c]pyrazine-9-carboxylic acid] | > 25000 | < 100
21 | CC(C)(C)[C@@H]1Cn2nc(C3CC3)c(-c3cc(F)ccc3F)c2-c2cc(=O)c(C(=O)O)cn21 [Example 155, (R)-6-(tert-butyl)-2-cyclopropyl-1-(2,5-difluorophenyl)-10-oxo-5,6-dihydro-10H-pyrazolo[1,5-a]pyrido[2,1-c]pyrazine-9-carboxylic acid] | > 25000 | < 100
